Data on one compound can be found in patent US11752111B2, “Use of cannabidivarin in the treatment of autism spectrum disorder, associated disorders and schizophrenia” (GW Research Limited, priority 2016, dated 2023).

The subject of data set [1] is Ube3am-/p+ (AS) mice. Kind of data set: Tail suspension test in Angelman syndrome model. Type of data set: in vivo, mouse. The following applies: CBDV 20 mg/kg i.p.; AS mice vs AS vehicle. The procedure: (§1) Heterozygous mice with maternal deficiency of Ube3A (Ube3am−/p+) and wild type (Ube3am+/p+) were purchased from The Jackson Laboratory (Jackson code: B6.129S7-Ube3a tm1Alb/J) and maintained in a C57BL/6 background.
(§2) Drugs were dissolved in 1:1:18 ethanol:cremophor:0.9% saline, for intraperitoneal (i.p.) administration. Drug treatment was performed daily for 35 days. CBDV was administered at 20 mg/kg.
Tail suspension: The tail suspension test assesses depressive-like behaviour in mice. Mice were individually suspended by the tail on a horizontal bar (50 cm from floor) using adhesive tape placed approximately 4 cm from the tip of the tail. The duration of immobility was recorded in seconds over a period of 6 minutes by a time recorder. Immobility time was defined as the absence of escape-oriented behaviour.

For data set [2], the system named is GFAP, CD11b, TNFα expression in the hippocampus. Kind of data set: Neuroinflammation studies, hippocampus protein expression by Western blotting, prenatal VPA model. It is filed as in vivo, rat. The procedure: At the end of the study, on PND 59, male rats treated with CBDV 20 mg/kg i.p. were sacrificed and the hippocampus was collected 24 hours after the last CBDV injection and stored at −80° C. for evaluation of changes in protein expression of components of the endocannabinoid system (CB1 and CB2 receptors, the endocannabinoid degrading enzymes, FAAH and MAGL and the synthetic enzymes, DAGLα and NAPE-PLD); neuroinflammatory markers (GFAP (astrocytic marker), Iba1 (microglial marker), CD11b (activated microglial marker), TNF-α (proinflammatory cytokine) and iNOS (inflammatory mediator)); synaptic markers (Synaptophysin (synaptic vesicle protein), PSD-95 (post synaptic density protein) and the neurotrophins, BDNF and IGF by Western blotting.
For orientation: A western blot detects proteins with antibodies after separation by electrophoresis.

A further data set deals with MeCP2 KO mice. Kind of data set: Body weight gain in Rett syndrome model. It is filed as in vivo, mouse. The method, then:
CBDV was administered daily at the dose of 2, 20 and 200 mg/kg i.p. starting from PND 28 and the following signs were scored every other day: hindlimb clasping (indication of motor imbalance), tremor, gait (measure of coordination), breathing, mobility and general condition.
The CBDV was dissolved in ethanol, cremophor and saline (1:1:18).
Starting from PND 28, mice received a daily intraperitoneal injection of CBDV (or vehicle) at the dose of 2, 20 and 200 mg/kg. Animals were then scored every other day to evaluate the effect of CBDV treatment on motor symptoms (hindlimb clasping, gait, mobility) as well as neurological signs and general conditions (breathing abnormalities, tremors and general condition) present in MeCP2 knockout (KO) mice.

Data set [3] deals with Ube3am-/p+ (AS) mice. Kind of data set: Rotarod test in Angelman syndrome model. It is filed as in vivo, mouse. Conditions: CBDV 20 mg/kg i.p. chronic treatment (30 days); AS mice vs AS vehicle. The method, then: as §1, §2
Rotarod: The rotarod test assesses balance and motor coordination of mice. Mice have been measured for the time (in seconds) of equilibrium before falling on a rotary cylinder by a magnet that, activated from the fall of the mouse on the plate, allows to record the time of permanence on the cylinder. […] The animals were analysed by 2 separate tests at 1-h interval in the same day.
A general note: The rotarod test checks motor coordination on a turning rod.

Data set [4] concerns Ube3am-/p+ (AS) mice. Kind of data set: Clasping test in Angelman syndrome model. It is filed as in vivo, mouse. Conditions: CBDV 20 mg/kg i.p. chronic treatment (30 days); AS mice at 10 weeks of age vs AS vehicle. The method, then: as §1
Drugs were dissolved in 1:1:18 ethanol:cremophor:0.9% saline, for intraperitoneal (i.p.) administration. […] CBDV was administered at 20 mg/kg.
Clasping: The clasping test assesses ataxia in mice. Mice were suspended by the base of the tail and their behaviours were recorded for 30 seconds. The time for which the mice clasped their hind limbs was recorded. The time was then scored as follows: 4, 15-30 s, 3, 10-15 s, 2, 5-10 s, 1, 0-5 s and 0,0 s

In the next data set the test system is VPA-exposed rats. Kind of data set: Sociability and preference for social novelty, 3-chamber apparatus, prenatal VPA model. Type of data set: in vivo, rat. The method, then:
Pregnant Sprague-Dawley rats (Charles River, Calco, Italy), received a single intraperitoneal injection of 500 mg/kg sodium valproate on the 12.5 day after conception, and control females were injected with physiological saline at the same time. Sodium valproate (Sigma Aldrich, Milan, IT) was dissolved in saline at a concentration of 250 mg/ml.
CBDV was dissolved in ethanol, cremophor and saline (1:1:18). Symptomatic treatment with CBDV at doses of 0.2, 2, 20, and 100 mg/kg/day i.p. was performed starting from PND 34 (early adolescence) till 56 (early adulthood), both in male and female offspring of dams injected with VPA 500 mg/kg (or vehicle) on day 12.5 after conception. At PND 56, a series of behavioural tests was performed in order to assess the effect of chronic CBDV on sociability, social novelty, short-term memory, locomotion and stereotyped/repetitive behaviours.
Sociability and preference for social novelty: These behaviours were investigated in a 3-chamber apparatus which allows for the measurement of social approach and social preference. In brief, animals were placed into a novel arena (80 cm×31.5 cm) composed of three communicating chambers separated by Perspex walls with central openings allowing access to all chambers for 5 min.
Following this acclimatisation period, animals were briefly confined to the central chamber while an unfamiliar rat confined in a small wire cage was placed in one of the outer chambers. An identical empty wire cage was placed in the other chamber. The unfamiliar rat was randomly assigned to either the right or left chamber of the arena. The test animal was then allowed to explore the arena/chambers for a further 5 min. Time spent engaging in investigatory behaviour with the rat was evaluated with the aid of Anymaze program (Ugo Basile, Italy) in order to examine social approach.
To investigate the preference for social novelty, a novel unfamiliar rat was then placed in the empty cage and the test animal was then allowed to explore the arena/chambers for a further 5 min. Time spent engaging in investigatory behaviour with the novel unfamiliar rat was evaluated with the aid of Anymaze program (Ugo Basile, Italy) in order to examine preference for social novelty.

Regarding `C=C(C)[C@@H]1CCC(C)=C[C@H]1c1c(O)cc(CCC)cc1O` [CBDV, Cannabidivarin], the “duration of immobility time, tail suspension (FIG. 14)” value with Ube3am-/p+ (AS) mice [1] is “significantly reduced the duration of immobility time”. In data set [2] (chronic CBDV 20 mg/kg i.p., male VPA-exposed rats), the “expression of inflammatory markers that were increased (GFAP, CD11b, TNFα) in hippocampus (FIG. 2D)” value was “completely normalised”. Further, in data set [2] (chronic CBDV, control rats), the “expression of inflammatory markers in hippocampus (FIG. 2D)” value is given as “no effect”. Also, the “body weight gain (FIG. 4A)” value with MeCP2 KO mice (2, 20 and 200 mg/kg i.p. daily PND 28-66, MeCP2 KO mice) is given as “partially prevent the reduction in body weight”. Moreover, the results for the “body weight, area under the curve (FIG. 4B)” value with MeCP2 KO mice (KO mice) and in the data set with MeCP2 KO mice (WT controls) were “significantly rescued body weight” and “without affecting body weight”, respectively. Besides, the “latency to fall, rotarod (FIG. 12)” value in the data set on Ube3am-/p+ (AS) mice [3] is recorded as “reduced latency to fall”. In addition, the “clasping duration (FIG. 11)” value with Ube3am-/p+ (AS) mice [4] is reported as “significantly reduced clasping duration”. The “restoration of social novelty preference (FIG. 1A)” value in the data set on VPA-exposed rats (CBDV 20 mg/kg/day i.p. PND 34-56, VPA offspring, p<0.001 in males, p<0.01 in females) is on record as “statistically significant effect”. Also, the “reduction of preference index compared to controls” value in the data set with VPA-exposed rats (VPA-CBDV animals, VPA alone about 48%) was “about 13%”. Besides, the “impairment in sociability (FIG. 1B)” value with VPA-exposed rats (all doses (0.2, 2, 20, 100 mg/kg/day i.p.), VPA rats) is recorded as “significantly reduced the impairment in sociability”. In the data set on VPA-exposed rats (doses of 20 mg/kg and 100 mg/kg, VPA rats), the “deficit in social preference (FIG. 1C), time exploring novel vs familiar rat” value is “reversed the deficit in social preference”.
